Read-outs that look alike come from different tables or passages of the source.

Series [1] can be described thus: In vitro transdermal permeation, diffusion cell, pig epidermis. The class given is in vitro ADME, domestic pigs. Particulars: from Jss across pig epidermis, 55/40/5 ethanol/water/cineole; patch area of 20 cm^2. As for the experimental part:
The viable epidermal layer was removed from the flanks of freshly sacrificed four month-old female domestic pigs. The flank area of each animal was carefully shaved and the upper 200 μm of skin (Meyer, W., et al., Curr. Prob. Dermatol., 7: 39-52, 1978; de Jalón, et al., J. Control. Rel., 75:191-197, 2001) was harvested using an electric dermatome (Robbins Instruments, Chatham, N.J., U.S.A.). Pigskin epidermal specimens were frozen at −18° C. between layers of PBS-soaked tissue paper enclosed in aluminum foil for up to two weeks prior to use in in vitro permeation studies.
A custom made finite dosing diffusion cell (AGB Scientific, Dublin, Ireland, FIG. 1) based upon and modified from the Keshary-Chien type diffusion cell was used for in vitro permeation studies.
Three to five diffusion cells were used in each permeation experiment and monitoring was performed over a 48 hour period. The cells were linked in series to a thermostatically controlled circulation bath set at 35° C. to mimic human skin surface temperature. Each cell was placed on a stir-plate set at a defined stirring rate of 1,000 rpm. The surface area for permeation provided by each cell was 3.14 cm^2.
Data collected from each permeation study included:
1) the average maximum flux obtained in 48 hours (Jmax),
2) the total absorption characterized as the total weight of peptide delivered transdermally into the receiver compartment over a 48 hour period,
3) the lag time to detectable flux which was equivalent to the latest sampling time at which no peptide was detectable by HPLC analysis of the receiver solution, and
4) an equivalent 48-hour steady state flux was determined by obtaining the slope of the best-fit line for a plot of cumulative flux per unit area versus time (described by McDaid, D. M. et al., Int. J. Pharm., 133:71-83, 1996).
Fresh hairless mouse skin samples or fresh or freshly thawed pig skin samples were mounted onto the diffusion cell with the SC topmost and in contact with the donor system. A rubber or plastic ring was placed on top of the skin sample to secure it in position. The combination of the diffusion cell top, the skin and the rubber ring was securely fastened together by means of a threaded cap. A recorded volume of receiver solution was added to the receiver compartment and maintained at 35° C. The receiver solution was 60/40 (v/v) PBS/propylene glycol (pH 7.1). The propylene glycol fraction was used to increase the solubility of the somatostatin-fatty acid salts. Previous work reported by Morgan et al. (J. Pharm. Sci., 87:1213-1218, 1998) has shown that a 50/50 water/propylene glycol receptor solution had no detrimental effect on the barrier integrity of both hairless mouse and porcine skin.
The receiver solution was allowed to equilibrate at 35° C. for 30 minutes. The experiment was initiated by the application of 1 ml of donor solution containing approximately 5 mg free base peptide in DMSO to the skin surface followed by sealing of the donor compartment with Parafilm®. A narrow-bore hypodermic needle was used to withdraw 1 ml samples from the receiver compartment via the sampling port; at each sampling time, an equal volume of drug-free receiver solution was immediately added back to the receiver compartment. Samples were analyzed by HPLC.
HPLC determination of peptide content in the receiver solution along with the known surface area of skin used (3.14 cm^2) allowed for calculation of transdermal flux (in units of μg/cm^2/hr) for each time point. Panels 1 and 2 of FIG. 2 show flux profiles obtained for the oleate salts of Compound A and Compound B in DMSO which far exceeded the flux profiles for the myristate, octanoate, decanoate, linoleate, nonanote, acetate and laurate salts of Compound A as well as the acetate salt of Compound B in DMSO. […]

Series [2] in a line: Pharmacokinetics of Compound A after i.v. infusion to healthy human volunteers (Chassard et al.). It counts as in vivo. As for the experimental part: A number of basic equations exist for the prediction of drug plasma levels in humans obtained by transdermal delivery. In order to make use of these equations, basic human pharmacokinetic parameters are required for the drug in question. Chassard et al. (J. Endocrinol. Invest. 20(Supp. to no. 7):30-32, 1997) reported on the pharmacokinetics of Compound A after i.v. infusion of 7, 21 and 42 μg/Kg to healthy human volunteers (n=12) obtaining values as shown in Table 20.
The values obtained for the intermediate dose of 21 μg/Kg were used to determine the necessary input rate, i.e., steady state flux, required in humans to achieve therapeutic plasma levels as outlined by Lee et al. (Res. Comm. Mol. Path. Pharmacol., 85, 337-346, 1994) in their studies on melatonin. […] As described by Chatterjee et al. (Pharm. Res., 14:1058-1065, 1997), the following equation can be used to predict required delivery rates, assuming transdermal delivery can be treated as an intravenous infusion: […]

Series [3] in a line: Calculation of required transdermal delivery rate in humans (Eqn. 10.5). Particulars: human. Here is the method: The values obtained for the intermediate dose of 21 μg/Kg were used to determine the necessary input rate, i.e., steady state flux, required in humans to achieve therapeutic plasma levels as outlined by Lee et al. (Res. Comm. Mol. Path. Pharmacol., 85, 337-346, 1994) in their studies on melatonin. […] As described by Chatterjee et al. (Pharm. Res., 14:1058-1065, 1997), the following equation can be used to predict required delivery rates, assuming transdermal delivery can be treated as an intravenous infusion:
where K0 is the required zero order delivery rate to achieve a therapeutic steady state plasma concentration (Cpss). […] Thus, for a skin area of 20 cm^2, the required steady-state transdermal flux would be 0.45 μg/cm^2/hr. Assuming a therapeutic plasma level of 0.5 ng/ml for Compound B and utilizing the relevant Compound A parameters, a required steady-state flux of 0.23 μg/cm^2/hr was calculated for a skin area of 20 cm^2.

The conditions of series [4]: human, cited from earlier work.
The conditions of series [5]: cited from earlier work.
For series [6] the following is noted: rabbits, iontophoresis; cited from earlier work.
The conditions of series [7]: mice, topical with 1% N-decylmethylsulfoxide, within 2 hours of administration; cited from earlier work.

For orientation: Vd means the apparent volume that relates the amount in the body to the concentration in plasma or blood. As usually defined, the Vss is a proportionality between amount in the body and measured concentration, not a real space. Take `CC(C)[C@@H]1NC(=O)[C@H](CCCCN)NC(=O)[C@@H](Cc2c[nH]c3ccccc23)NC(=O)[C@H](Cc2ccc(O)cc2)NC(=O)[C@@H](NC(=O)[C@H](N)Cc2ccc3ccccc3c2)CSSC[C@@H](C(=O)N[C@H](C(N)=O)[C@@H](C)O)NC1=O` [Compound A, D-2-Nal-c(Cys-Tyr-D-Trp-Lys-Val-Cys)-Thr-NH2]: in series [1], the “estimated daily systemic delivery across human skin” value is on record as “approximately 0.675 mg”. For the same compound, the “CL for a 70 Kg human” value in series [2] (292 (ml/hr)/Kg×70 Kg) is on record as 20,440 cm^3/hr. For the same compound, in series [2] (human, plasma, intravenous, 21 ug/kg, from Vss at 21 μg/Kg multiplied by 70 Kg), the Vd came to 13 L. The “required input rate (K0)” value in series [3] (required Cpss=1 ng/ml, Eqn. 10.5) was 8.98 µg/h. Besides, in series [3] (skin area of 20 cm^2, Cpss 1 ng/ml (Compound A), 0.5 ng/ml (Compound B, using Compound A parameters)), the “required steady-state transdermal flux” value was 0.45 μg/cm^2/hr. Further, in series [4] (i.v. infusion 7 μg/Kg), the AUC was 21.2 ± 4.1 (ng/ml)/hr, the CL is 341 ± 62 (ml/hr)/Kg, the Kel is 0.87 ± 0.11 h⁻¹ and the MRTinfusion was 42 ± 6 min. Besides, in series [4] (i.v. infusion 7 μg/Kg), the Vss was 0.194 ± 0.041 L/kg and the t1/2 was 48 ± 6 min. Besides, in series [4] (i.v. infusion 21 μg/Kg), the AUC is on record as 74.3 ± 13.7 (ng/ml)/hr, the CL is 292 ± 58 (ml/hr)/Kg, the Kel was 0.69 ± 0.07 h⁻¹ and the MRTinfusion is 48 ± 6 min. Besides, in series [4] (i.v. infusion 21 μg/Kg), the distribution volume (Vss) was 0.186 ± 0.044 L/kg and the t1/2 was 60 ± 6 min. Besides, in series [4] (i.v. infusion 42 μg/Kg), the AUC was 180.6 ± 46.6 (ng/ml)/hr, the CL was 249 ± 72 (ml/hr)/Kg, the Kel was 0.43 ± 0.09 h⁻¹ and the MRTinfusion is 54 ± 12 min. For the same compound, in series [4] (i.v. infusion 42 μg/Kg), the Vss is 0.187 ± 0.049 L/kg and the t1/2 was 96 ± 18 min.

For the compound `CC(C(=O)O)c1ccc(N=[N+]=[N-])cc1` (stereo not shown) [azidoprofen], the “flux through hairless mouse skin” value in series [5] (donor concentration 6 μmol cm-3) was 0.236 μmol cm-2 hr-1; in series [5] (donor concentration 15 μmol cm-3), 0.649 μmol cm-2 hr-1.

For the compound `C[C@@H](O)[C@@H]1NC(=O)[C@H](CCCCN)NC(=O)[C@@H](Cc2c[nH]c3ccccc23)NC(=O)[C@H](Cc2ccccc2)NC(=O)[C@@H](NC(=O)[C@H](N)Cc2ccccc2)CSSC[C@@H](C(=O)N[C@H](CO)[C@@H](C)O)NC1=O` [octreotide, D-Phe-c(Cys-Phe-D-Trp-Lys-Thr-Cys)-Thr-ol], in series [6], the apparent bioavailability entry was “approximately 8%” and the “therapeutic plasma concentration throughout the iontophoretic episode” value was “greater than 1 ng/ml”. Also, the “plasma levels of peptide” value in series [7] was over 8 ng/mL.

(Values after patent publication US20130085105A1, “Transdermal Administration Of Peptides” (The Provost, Fellows and Scholars of the College of Holy …, priority 2010, published 2013).)
